How the values were obtained:
PC-3 = test: 6FGA uptake in PC-3 cells, with and without transporter inhibitors or sodium; assay type: cell-based, human; details: PC3 cell line
Protocol: See FIG. 2A-D. Its transport properties were evaluated in two human metastatic cancer cell lines: triple negative breast cancer MDA-MB-231 and human prostate cancer (PC-3). […] See also FIG. 5A, FIG. 5B, and FIG. 6.
The assays are performed from a modified protocol as we have done previously, and from flow cytometry formats (Zou ry al. (2005) J Biochem Biophys Methods 64:207-15; Landau et al. (2007) American journal of physiology Endocrinology and metabolism 293:E237-45). In brief, cells are grown to confluence using recommended growth media in 96-well plates. […] The cells are detached with trypsin and resuspended in PBS. The cells are analysed using flow cytometry with the Cy5.5 filter set (excitation 685 nm, exmission 710 nm) gated for 250,000 counts.

SGLTs and GLUTs = details: prior work; cited from earlier work
[1] = rat, in vivo; cited from earlier work
[2] = test system: metastatic prostate cancer; details: men with metastatic prostate cancer, phase III; cited from earlier work

Row | SMILES | effect of inhibitor on 6FGA uptake (PC-3) | transport by SGLTs / GLUTs (SGLTs and GLUTs) | other results
1 | C=C1[C@@H](C)[C@H]2[C@H](Cc3ccccc3)NC(=O)[C@]23OC(=O)/C=C/[C@H](O)CCC[C@@H](C)C/C=C/[C@H]3[C@@H]1O [cytochalasin B] | not blocked | – | –
2 | O=C[C@H](O)[C@@H](O)[C@H](O)[C@H](O)C[18F] [[18F]6FDG, 18F-labelled 6-fluoro-6-deoxy-D-glucose] | – | transported by SGLTs and GLUTs | activity in the bladder [1]: no activity was evident in the bladder; renal handling [1]: reabsorbed in proximal tubules of kidneys
3 | [Cl][223Ra][Cl] [Xofigo, ^223RaCl2] | – | – | adverse events [2]: low rates of myelosuppression and few adverse events; overall survival [2]: improve overall survival
4 | O=C(CCc1ccc(O)cc1)c1c(O)cc(O)cc1O[C@@H]1O[C@H](CO)[C@@H](O)[C@H](O)[C@H]1O [phlorizin] | blocked | – | –
5 | OC[C@H]1OC(O)[C@H]([18F])[C@@H](O)[C@@H]1O (stereo partly drawn) [[^18F]FDG, ^18F-labeled 2-fluoro-2-deoxy-D-glucose] | – | poorly transported by SGLTs | –

From patent publication US20210101905A1, “Development of Imaging and Therapeutic Glucose Analogues for Sodium Dependent Glucose Transporters” (Llnited States Government as represented by the Department …, priority 2019, published 2021)
